Counter-ions that a name gives are not always drawn. Like-named read-outs stand apart in the source and are kept apart here.
Tests used:
[1] = tested on: laboratory mice, strain CD-1; test: Open field test (locomotor activity, sedative effect); assay type: in vivo; conditions: for overall pathway in open field: 0.3 mg/kg, 50 minutes
Method: In the Experimental Part 1 were used adults (30-35 g) male laboratory mice, strain CD-1 from Velaz facility, Czech Republic. Mice were housed in plastic boxes with a 12-hour light cycle (lights on at 7:00 pm). Mice had free access to food and water.
Amphiphilic steroid compounds were dissolved in a solution of 3 g (2-hydroxypropyl)-β-cyclodextrin (CDX, Sigma-Aldrich) and 157 mg of citric acid ([…], Sigma-Aldrich) in 30 ml of distilled water, the pH was adjusted to 7.4 using sodium hydroxide (NaOH, Sigma-Aldrich). Thus there were prepared solutions of the four steroids for application rates of 0.1, 1, 10 and 100 mg/kg.
The efficacy of the studied compounds was compared to known NMDA antagonist is memantine (Sigma-Aldrich) at a dose of 5 mg/kg in rats, ketamine (Vétoquinol) at 10 mg/kg and dizocilpine (MK-801) (Sigma-Aldrich) at a dose of 0.3 mg/kg in mice. These three compounds were dissolved in saline (B Braun).
The substances at dose 0.1-100 mg/kg were administered before the test to mice intraperitoneally. As controls were used intact mice and mice that received CDX solution. Also, MK-801 (0.3 mg/kg) was used for comparison of effects of noncompetitive antagonist of NMDA receptors. From the experiment was evaluated overall track anywhere in the arena as an indicator of locomotor activity. In addition, it was judged a ten-minute segments track during each experiment. Based on these values, it was possible to determine the latency time of onset of action and changes in locomotor activity over time.
In this arrangement, the sedative effect of the studied compounds at the highest dose was evaluated. […] Over time was monitored locomotor activity and possible changes characterized by tremor, ataxia, restlessness, or sedation or general anesthesia (absence of response to stimuli, decreased muscle tone).

[2] = target: T1, NR1-1a/NR2B NMDA receptor (Rattus norvegicus, UniProt P35439+Q00960); test: Patch-clamp inhibition of glutamate-evoked currents at recombinant NMDA receptors in transfected HEK293 cells; assay type: cell-based; conditions: for IC50: calculated from relative steroid-induced inhibition, Hill's coefficient 1.2, read-out: IC50
T1 construct: expressed in transfected cells; host or cells: HEK293 cells (ATCC CRL1573)
Method: Transfected cells were identified by means of fluorescent green protein (GFP) fluorescence. Its genus was transfected together with the both receptor subunit genes.
Steroid-containing solutions were prepared from fresh solution (20 mmol·l^−1, of steroid dissolved in dimethyl sulfoxide, DMSO), which was added to the extracellular solution containing 1 mmol·l^−1 glutamic acid and 10 μmol·l^−1 of glycine. Identical concentrations of DMSO were added to all other extracellular solutions.
Current responses produced by extracellular application of glutamic acid solution (1 mmol·l^−1) were measured from the whole cell by patch-clamp technique, which is used for the study of transport of charged particles through model and also natural biological membranes. The currents were measured at membrane potential maintained at −60 mV and +60 mV.
Same amounts (0.3 μg) of cDNA coding NR1, NR2 and GFP (green fluorescent protein) (pQBI 25, Takara, Japan) were mixed with 0.9 μl of Matra-A Reagent (IBA, Göttingen, Germany) and added to confluent HEK293 cells cultivated in v 24-pit cultivating plate. After trypsination, the cells were re-suspended in Opti-MEM® I containing 1% fetal bovine serum. Subsequently, 20 mmol·l^−1 MgCl2, 1 mmol l^−1 D,L-2-amino-5-phosphonopentanoic acid, 3 mmol·l^−1 kynurenic acid was added to the mixture and cells were inoculated on the polylysine-coated glass plates having 25 mm in diameter. The following genes coding NMDA receptor subunits were used for transfection: NR1-1 a (GenBank accession No. U08261) and NR2B (GenBank accession No. M91562).
HEK293 Cultured cells were used for electrophysiological investigations with a latency of 16-40 h after transfection. Whole-cell currents were measured by patch-clamp amplifier (Axopatch 1D; Axon Instruments, Inc. Foster City, USA) after capacitance and serial resistance (<10 MΩ) compensation to 80-90%. Agonist-induced responses were filtered to 1 kHz (8-pole Bessel filter; Frequency Devices, Haverhill, USA), digitized with sampling frequency of 5 kHz and analyzed by pClamp version 9 software (Axon Instruments, USA). […] Extracellular solution (ECS) contained 160 mmol·l^−1 sodium chloride, 2.5 mmol·l^−1 potassium chloride, 10 mmol·l^−1 HEPES, 10 mmol·l^−1 glucose, 0.2 mmol·l^−1 EDTA a 0.7 mmol·l^−1 calcium chloride (pH adjusted to 7.3 by sodium hydroxide solution). Glycine was added to both testing and control solution. Moreover, bicuculline (10 μmol·l^−1) and tetrodotoxin (0.5 μmol·l^−1) was added to hippocampal cultures. Steroid-containing solutions were prepared from fresh solution (20 mmol·l^−1) of steroid dissolved in dimethyl sulfoxide (DMSO). Same concentrations of DMSO were used in all extracellular solutions. Control and experimental solutions were applied via microprocessor-controlled perfusion system with approx. rate of solution exchange in areas adjacent to cells reaching ˜10 ms.
Current responses produced by 100 μmol·l^−1 of NMDA (in the case of hipocampal neurones), or by 1 mmol·l^−1 of glutamate (on recombinant NMDA receptors) were measured at membrane potential maintained at −60 mV. […] Relative effect of steroid-induced inhibition was used for calculating IC50.

[3] = HEK293, steroid concentration 50 μmol·l^−1, 1 mmol·l^−1 glutamate, −60 mV, read-out: Mean % change ± SD
[4] = HEK293, read-out: Mean % change ± SD
[5] = steroid concentration 10 μmol·l^−1, 1 mmol·l^−1 glutamate, −60 mV

T1 sequence (Q00960 27-1482, other chains not shown): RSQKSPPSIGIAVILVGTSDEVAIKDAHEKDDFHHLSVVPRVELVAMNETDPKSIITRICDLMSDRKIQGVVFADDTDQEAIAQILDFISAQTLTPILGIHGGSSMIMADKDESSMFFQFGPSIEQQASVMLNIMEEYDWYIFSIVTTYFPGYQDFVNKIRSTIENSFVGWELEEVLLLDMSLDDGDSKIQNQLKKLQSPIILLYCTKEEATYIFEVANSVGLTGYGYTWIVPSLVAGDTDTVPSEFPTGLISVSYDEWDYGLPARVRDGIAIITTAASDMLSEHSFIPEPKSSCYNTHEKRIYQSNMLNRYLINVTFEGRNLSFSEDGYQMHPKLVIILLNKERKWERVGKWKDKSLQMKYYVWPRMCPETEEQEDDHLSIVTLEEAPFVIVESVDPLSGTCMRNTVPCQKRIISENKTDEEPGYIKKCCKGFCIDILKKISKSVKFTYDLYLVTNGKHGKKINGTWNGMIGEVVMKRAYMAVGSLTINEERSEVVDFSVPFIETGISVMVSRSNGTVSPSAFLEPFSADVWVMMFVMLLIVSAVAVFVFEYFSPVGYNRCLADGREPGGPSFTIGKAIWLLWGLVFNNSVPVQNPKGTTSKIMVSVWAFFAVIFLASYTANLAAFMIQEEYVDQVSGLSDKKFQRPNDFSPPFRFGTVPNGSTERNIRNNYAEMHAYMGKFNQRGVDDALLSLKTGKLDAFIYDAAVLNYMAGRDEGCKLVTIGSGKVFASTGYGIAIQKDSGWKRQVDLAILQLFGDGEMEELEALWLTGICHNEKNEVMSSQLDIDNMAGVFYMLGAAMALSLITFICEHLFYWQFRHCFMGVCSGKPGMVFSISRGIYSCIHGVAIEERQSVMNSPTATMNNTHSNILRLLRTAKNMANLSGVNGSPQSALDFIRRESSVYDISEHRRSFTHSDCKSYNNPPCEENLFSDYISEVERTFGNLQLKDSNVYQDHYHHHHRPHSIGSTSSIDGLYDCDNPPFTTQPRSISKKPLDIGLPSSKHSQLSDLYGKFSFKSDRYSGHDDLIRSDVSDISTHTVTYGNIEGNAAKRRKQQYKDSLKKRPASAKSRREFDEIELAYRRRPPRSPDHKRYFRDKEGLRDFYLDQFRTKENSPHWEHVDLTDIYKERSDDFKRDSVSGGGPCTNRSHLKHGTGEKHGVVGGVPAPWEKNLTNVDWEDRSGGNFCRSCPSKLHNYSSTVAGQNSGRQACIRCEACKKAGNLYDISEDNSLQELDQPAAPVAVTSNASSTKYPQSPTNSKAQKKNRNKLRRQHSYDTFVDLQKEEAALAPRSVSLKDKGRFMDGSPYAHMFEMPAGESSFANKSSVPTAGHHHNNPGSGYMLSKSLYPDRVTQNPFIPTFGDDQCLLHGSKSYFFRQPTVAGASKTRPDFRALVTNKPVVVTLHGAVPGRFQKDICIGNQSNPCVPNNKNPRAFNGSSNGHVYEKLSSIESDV

| Molecule | melting point [°C] | IC50 [2] [µM] | also measured |
| --- | --- | --- | --- |
| C[C@]12CC[C@@H](OS(=O)(=O)O)C[C@H]1CC[C@@H]1[C@@H]2CC[C@@]2(C)[C@H]1CCC2(F)F (as salt: salt) [Compound 95, Pyridinium (3R,5R,8R,9S,10S,13S,14S)-17,17-difluoro-10,13-dimethylhexadecahydro-1H-cyclopenta[a]phenanthren-3-yl 3-sulfate] | 185 to 187 | – | – |
| C=C(C)[C@H]1CC[C@H]2[C@@H]3CC[C@@H]4C[C@H](OC(=O)CCC(=O)O)CC[C@]4(C)[C@H]3CC[C@]12C | 148 to 149.5 | – | – |
| COC(=O)[C@@]1(C)CC[C@H]2[C@@H](CC[C@@H]3C[C@H](OS(=O)(=O)O)CC[C@@]32C)C1 (as salt: sulfate) [Compound 40, Methyl (2S,4aS,4bS,7R,8aR,10aS)-2,4b-dimethyl-7-(sulfooxy)tetradecahydrophenanthren-2-carboxylate] | 115 to 118 | – | – |
| CC12CCCCC1C1CCC3CC(OS(=O)(=O)O)CCC3(C)C1CC2 (as salt: salt) [Compound 101, Pyridinium (2R,4aS,4bS,6aS,10bS,6aS,12aR)-4a,6a-dimethyloctadecahydrochrysen-2-yl 2-sulfate] | 173 to 174 | – | – |
| C=C1CC[C@H]2[C@@H]3CC[C@@H]4C[C@H](OC(=O)CCCCC(=O)O)CC[C@]4(C)[C@H]3CC[C@]12C | 100 to 102 | – | – |
| C[C@]12CC[C@@H](OC(=O)CCC(=O)O)C[C@H]1CC[C@H]1CCCC[C@@H]12 [Compound 9, 4-(((2R,4aS,4bS,8aR,10aR)-4a-Methyltetradecahydrophenanthren-2-yl)oxy)-4-oxobutanoic Acid] | 131 to 133 | – | – |
| C[C@]12CC[C@@H](OS(=O)(=O)O)C[C@H]1CC[C@@H]1[C@@H]2CC[C@]2(C)[C@@H](I)CC[C@@H]12 (as salt: salt) [Compound 93, Pyridinium (3R,5R,8R,9S,10S,13S,14S,17S)-17-iodo-10,13-dimethylhexadecahydro-1H-cyclopenta[a]phenanthren-3-yl 3-sulfate] | 118 to 120 | – | – |
| C[C@]12N[C@H](Cc3ccccc31)c1ccccc12 [dizocilpine, reference compound] | – | – | overall pathway in open field ([1]; vs CDX control group): significant increases; overall pathway in open field ([1]; vs intact animals (p=0.0653)): tendency to increasement; time course of locomotor activity ([1]; dizocilpine 0.3 mg/kg, ten-minute sections): gradual increase; total locomotor activity ([1]; dizocilpine 0.3 mg/kg, vs two control groups): significantly higher |
| C[C@@]12CCC[C@H]1[C@@H]1CC[C@@H]3C[C@H](OC(=O)[C@@H](N)CCCNC(=N)N)CC[C@]3(C)[C@H]1CC2.Cl.Cl | 238 to 240 | – | – |
| C[C@H]1CC[C@H]2[C@@H]3CC[C@@H]4C[C@H](OC(=O)CC(=O)O)CC[C@]4(C)[C@H]3CC[C@]12C | 158 to 161.2 | – | – |
| C=C1CC[C@H]2[C@@H]3CC[C@@H]4C[C@H](OC(=O)C[N+](C)(C)C)CC[C@]4(C)[C@H]3CC[C@]12C (as salt: chloride) [Compound 76, 2-(((3R,5R,8R,9S,10S,13S,14S)-10,13-Dimethyl-17-methylenehexadecahydro-1H-cyclopenta[a]phenanthren-3-yl)oxy)-N,N,N-trimethyl-2-oxoethan-1-ammonium chloride] | 175 to 177 | – | – |
| Pyridinium (3R,5R,8R,9S,10S,13S,14S,17R)-10,13-dimethyl-17-(prop-1-en-2-yl)hexadecahydro-1H-cyclopenta[a]phenanthren-3-yl 3-sulfate [Compound 121] | – | 0.4 | Mean % change ± SD ([2]; steroid concentration 1 μmol·l^−1, 1 mmol·l^−1 glutamate, −60 mV): 71.7 ± 8.0% |
| COC[C@@]1(C)CC[C@H]2[C@@H](CC[C@@H]3C[C@H](OS(=O)(=O)O)CC[C@@]32C)[C@@H]1C [Compound 18, Pyridinium (2R,4aS,4bS,7S,8S,8aS,10aR)-7-(methoxymethyl)-4a,7,8-trimethyltetra-decahydrophenanthren-2-yl 2-sulfate] | – | 33 | inhibition at 50 µM [2, 3]: 60.5 ± 4.6% |
| C[C@@]12CCC[C@H]1[C@@H]1CC[C@@H]3C[C@H](OC(=O)CC(=O)O)CC[C@]3(C)[C@H]1CC2 [Compound 51] | – | 15.5 | inhibition at 10 µM [2, 4]: 42 ± 14% |
| Pyridinium (3R,5R,8R,9S,10S,13R,14S,17R)-17-((R)-sec-butyl)-10,13-dimethylhexadecahydro-1H-cyclopenta[a]phenanthren-3-yl 3-sulfate [Compound 123] | – | 11.7 | Mean % change ± SD [2, 5]: 46.2 ± 2.3% |
| COC(=O)[C@@]1(C)CC[C@H]2[C@@H](CC[C@@H]3C[C@H](OS(=O)(=O)O)CC[C@@]32C)C1 [Compound 40, Methyl (2S,4aS,4bS,7R,8aR,10aS)-2,4b-dimethyl-7-(sulfooxy)tetradecahydrophenanthren-2-carboxylate] | – | 224 | inhibition at 50 µM [2, 3]: 14.4 ± 1.8% |
| Pyridinium (3R,5R,8R,9S,10S,13R,14S,17R)-17-isopropyl-10,13-dimethylhexadecahydro-1H-cyclopenta[a]phenanthren-3-yl 3-sulfate [Compound 122] | – | 2 | Mean % change ± SD ([2]; steroid concentration 3 μmol·l^−1, 1 mmol·l^−1 glutamate, −60 mV): 59.6 ± 18.8% |
| COC(=O)C1(C)CCC2C(CCC3CC(OS(=O)(=O)O)CCC32C)C1C [Compound 22, Pyridinium (2R,4aS,7S,8S,10aR)-7-(methoxycarbonyl)-4a,7,8-trimethyltetra-decahydrophenanthren-2-yl 2-sulfate] | – | 74.6 | inhibition at 100 µM ([2]; HEK293, steroid concentration 100 μmol·l^−1, 1 mmol·l^−1 glutamate, −60 mV, read-out: Mean % change ± SD): 40.9 ± 6.1% |
| C/C=C1/CC[C@H]2[C@@H]3CC[C@@H]4C[C@H](OC(=O)CCCC(=O)O)CC[C@]4(C)[C@H]3CC[C@]12C [Compound 85, 5-(((3R,5R,8R,9S,10S,13S,14S,Z)-17-Ethylidene-10,13-dimethylhexadecahydro-1H-cyclopenta[a]phenanthren-3-yl)oxy)-5-oxopentanoic acid] | – | 38.4 | inhibition at 50 µM [2, 4]: 59.4 ± 7.8% |
| Pyridinium (3R,5R,8R,9R,10S,13S,14S)-13-methylhexadecahydro-1H-cyclopenta[a]phenanthren-3-yl 3-sulfate [Compound 126] | – | 5.4 | Mean % change ± SD [2, 5]: 68.3 ± 7.4% |
| C=C1C[C@H]2[C@@H]3CC[C@@H]4C[C@H](OS(=O)(=O)O)CC[C@]4(C)[C@H]3CC[C@]2(C)C1 [Compound 114, Pyridinium (3R,5R,8S,9S,10S,13R,14S)-10,13-dimethyl-16-methylenhexadekhydro-1H-cyclopenta[a]phenanthren-3-yl 3-sulfate] | – | 2.1 | inhibition at 3 µM [2, 4]: 59.1 ± 3.8% |

From US10017535B2, “Amphiphilic compounds with neuroprotective properties” (USTAV ORGANICKE CHEMIE A BIOCHEMIE AV CR, v.v.i., priority 2014, dated 2018)
